Measurements published in PubChem BioAssay AID2060336 (Molecular Pharmacology Branch, DTP, NCI, 2025).
pIC50: −log10 of the molar value. Where “and” joins values, the source holds several entries; their conditions need not be identical. Identical values can stand only once.

Test system: 958767-090-R-J1-PDC spheroid growth
Test: Anticancer human tumor 958767-090-R-J1-PDC patient-derived head and neck squamous carcinoma cell line growth inhibition [IpAb]
Settings: spheroids with HUVEC and MSC; for viability, T/C: stronger effect = lower value
Description: Combinatorial screen of targeted agents with ipatasertib and abemaciclib in multi-cell type tumor spheroids
A high-throughput screen of multi-cell type tumor spheroids was designed to identify active combinations of targeted small molecules and ipatasertib or abemaciclib. Complex spheroids include a stromal component modeled by human endothelial cells (HUVEC) and fibroblasts modeled by human mesenchymal stem cells (MSCs). The concentration ranges selected for each drug and investigational agent were based upon clinically achievable concentrations if the clinical Cmax of the agent was known.
Compounds. The drugs and investigational agents: ipatasertib (NSC767898), abemaciclib(NSC768073), selumetinib (NSC741078), trametinib (758246), adavosertib (NSC754352), everolimus (NSC733504), sapanisertib (NSC764658), vemurafenib (NSC761431), venetoclax (NSC766270), copanlisib (NSC809693), apelisib (NSC765974), palbociblib (NSC758247), vemurafenib (NSC761431), dabrafenib (NSC764134), ravoxertinib (NSC781343), BMS-387032 (NSC767048), sotorasib (NSC818433), talazoparib (NSC767125) and afursertib (NSC778305), were obtained from the National Cancer Institute (NCI) Developmental Therapeutics Program Chemical Repository. The FDA-approved anticancer drug set is available from the NCI Developmental Therapeutics Program. […] The stock solutions were prepared in dimethyl sulfoxide (DMSO, Sigma-Aldrich, St. Louis, MO, cat. D2650) at 800-fold the tested concentration and stored at -70 degrees C prior to their use. All drugs and investigational agents were tested over a range starting from a high concentration at or near the clinical Cmax and decreasing in half-log increments. If the clinical Cmax for an agent had not been determined, the highest concentration tested was 10 microM.
NCI60 Cell Culture. NCI60 cell lines were obtained from the NCI Developmental Therapeutics Program Tumor Repository. For each lot of cells, the Repository performed Applied Biosystems AmpFLSTR Identifiler testing with PCR amplification to confirm consistency with the published Identifier STR profile for each cell line. Cells were kept in continuous culture for no more than 20 passages. The optimal seeding densities for each of the cell lines at each time point assessed were determined prior to performing the concentration response studies. Briefly, the NCI60 human tumor lines were grown as monolayers in RPMI 1640 medium supplemented with 10% FBS and 2 mmol/L L-glutamine.
An additional 9 lines were from the NCI60 cell line panel including MDA-MB-231 breast carcinoma, MDA-MB-468 breast carcinoma, MCF7 breast carcinoma, Hs578T breast carcinoma, MALME-3M melanoma, SK-MEL-2 melanoma, SK-OV-3 ovarian carcinoma, DU-145 prostate carcinoma, PC-3 prostate carcinoma, all cell lines along with major genetic alterations are listed on Table 2. Pooled donor human umbilical vein endothelial cells (HUVEC, Lonza, cat. CC-2519) and human mesenchymal stem cells (hMSC, Lonza, cat. PT-2501) were purchased from Lonza (Walkersville, MD).
PDMR cell lines were grown in complete medium (DC medium): Dulbecco's modified Eagle's medium (DMEM)/F12 supplemented with 5% fetal bovine serum (FBS), 2 mM L-glutamine, 100 U/mL penicillin and 100 µg/ml streptomycin, 0.4 µg/ml hydrocortisone, 10 ng/ml epidermal growth factor (EGF) recombinant human protein, 24 µg/mL adenine, and 0.1 mg/mL primocin. During culture from frozen stock vials, PDMR cells were cultured in the same medium containing 10 µM Y-27632 (see Table 3). The PDCs were cultured in complete DMEM/F12 media without 10 microM Y-27632 dihydrochloride for at least two passages prior to the screen. The pooled donor HUVEC and hMSC were cultured in endothelial cell growth medium 2 (PromoCell, Heidelberg, Germany, cat. C-22011) and mesenchymal stem cell growth medium 2 (PromoCell, cat. C-28009), respectively. For all experiments, HUVEC and hMSC were used at passages </=5.
[…]
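Also: spheroids exposed to agents for 7 days.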
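For viability, T/C in this document: 100% = DMSO vehicle control wells.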

Which results are given for `CC1(C)CCC(CN2CCN(c3ccc(C(=O)NS(=O)(=O)c4ccc(NCC5CCOCC5)c([N+](=O)[O-])c4)c(Oc4cnc5[nH]ccc5c4)c3)CC2)=C(c2ccc(Cl)cc2)C1` + CC(C)NCC(C(=O)N1CCN(c2ncnc3c2C(C)CC3O)CC1)c1ccc(Cl)cc1?
pIC50 (curve of first compound, second compound 0.1 µM): 5.29; pIC50 (curve of first compound, second compound 0.316 µM): 5.47; pIC50 (curve of first compound, second compound 1 µM): > 7.50; pIC50 (curve of first compound, second compound 3.16 µM): > 7.50; pIC50 (curve of first compound, second compound 10 µM): > 7.50; viability, T/C (second compound 0.1 µM, first compound 0.0316 µM): 78.3%; viability, T/C (second compound 0.1 µM, first compound 0.1 µM): 66.5%; viability, T/C (second compound 0.1 µM, first compound 0.316 µM): 62.5%; viability, T/C (second compound 0.1 µM, first compound 1 µM): 87.9%; viability, T/C (second compound 0.1 µM, first compound 3.16 µM): 103%; viability, T/C (second compound 0.1 µM, first compound 10 µM): 8.08%; viability, T/C (second compound 0.316 µM, first compound 0.0316 µM): 60.8%; viability, T/C (second compound 0.316 µM, first compound 0.1 µM): 54.9%; viability, T/C (second compound 0.316 µM, first compound 0.316 µM): 44.4%; viability, T/C (second compound 0.316 µM, first compound 1 µM): 44.4%; viability, T/C (second compound 0.316 µM, first compound 3.16 µM): 60.4%; viability, T/C (second compound 0.316 µM, first compound 10 µM): 4.07%; viability, T/C (second compound 1 µM, first compound 0.0316 µM): 45.1%; viability, T/C (second compound 1 µM, first compound 0.1 µM): 47.5%; viability, T/C (second compound 1 µM, first compound 0.316 µM): 40.8%; viability, T/C (second compound 1 µM, first compound 1 µM): 36%; viability, T/C (second compound 1 µM, first compound 3.16 µM): 38.2%; viability, T/C (second compound 1 µM, first compound 10 µM): 2.04%; viability, T/C (second compound 3.16 µM, first compound 0.0316 µM): 37.2%; viability, T/C (second compound 3.16 µM, first compound 0.1 µM): 35.3%; viability, T/C (second compound 3.16 µM, first compound 0.316 µM): 35.6%; viability, T/C (second compound 3.16 µM, first compound 1 µM): 29.3%; viability, T/C (second compound 3.16 µM, first compound 3.16 µM): 37.1%; viability, T/C (second compound 3.16 µM, first compound 10 µM): 2.03%; viability, T/C (second compound 10 µM, first compound 0.0316 µM): 34.3%; viability, T/C (second compound 10 µM, first compound 0.1 µM): 27%; viability, T/C (second compound 10 µM, first compound 0.316 µM): 24.2%; viability, T/C (second compound 10 µM, first compound 1 µM): 28.8%; viability, T/C (second compound 10 µM, first compound 3.16 µM): 30.7%; viability, T/C (second compound 10 µM, first compound 10 µM): 0.98%

`Cn1ncnc1[C@H]1c2n[nH]c(=O)c3cc(F)cc(c23)N[C@@H]1c1ccc(F)cc1` was tested. Which viability, T/C (compound 0.000316 µM) did it give?
Its viability, T/C is 123% and 91.8%.

What about the viability, T/C (compound 0.001 µM) of the same compound?
The viability, T/C was 81.7% and 109%.

And the viability, T/C (compound 0.00316 µM)?
The viability, T/C was 80.4% and 90.1%.

What about the viability, T/C (compound 0.01 µM) of the same compound?
The viability, T/C was 73.3% and 91.3%.

And the viability, T/C (compound 0.0316 µM)?
Its viability, T/C is 79.7% and 80.1%.

And the viability, T/C (compound 0.1 µM)?
The viability, T/C was 70.6% and 68.1%.

And the pIC50 (curve of compound)?
The pIC50 was < 7.00.

Which viability, T/C (compound 0.000316 µM) does the source give for `CC(C)n1nc(-c2ccc3oc(N)nc3c2)c2c(N)ncnc21` here?
Its viability, T/C is 84.9% and 95.3%.

And the viability, T/C (compound 0.001 µM)?
Its viability, T/C is 89.9% and 94.5%.

And the viability, T/C (compound 0.00316 µM)?
The viability, T/C was 74.5% and 73.8%.

And the viability, T/C (compound 0.01 µM)?
The viability, T/C was 55.9% and 54.9%.

And the viability, T/C (compound 0.0316 µM)?
The viability, T/C was 36.9% and 34.2%.

What about the viability, T/C (compound 0.1 µM) of the same compound?
Its viability, T/C is 39.7% and 32.1%.

And the pIC50 (curve of compound)?
The pIC50 was 7.86 and 7.92.
